Consider three compounds from patent publication US10815221B2, “Crystal forms of an androgen receptor antagonist, preparation method and use thereof” (Crystal Pharmaceutical (Suzhou) Co., Ltd., priority 2016, dated 2020).

≈ marks a conversion by molar mass, not a printed value. Entries after “also recorded” stand apart in the source; their conditions may differ. Some results are limits rather than exact numbers.

Holding throughout (type): physicochemical
Data set [1] in a line: Hygroscopicity by dynamic vapor sorption (DVS). As to conditions: for Hygroscopicity / Weight gain under 80% RH: DVS, 80% RH; for Solid Form after DVS: XRPD after DVS test. On the procedure: Dynamic vapor sorption (DVS) was applied to test hygroscopicity of Form B, Form C and crystalline form I in the prior art with about 10 mg of samples. The DVS plot of Form B is substantially as depicted in FIG. 10 and the XRPD pattern overlay before and after DVS test of Form B is substantially as depicted in FIG. 11. The DVS plot of Form C is substantially as depicted in FIG. 12 and the XRPD pattern overlay before and after DVS test of Form C is substantially as depicted in FIG. 13. The DVS plot of crystalline form I in the prior art is substantially as depicted in FIG. 14.

Data set [2] can be described thus: Storage stability of crystalline form (XRPD). As to conditions: for Change of Solid Form: 3 months. On the procedure:
Samples of Form B were stored under different conditions of 25° C./60% RH (open), 40° C./75% RH (open) for 3 months, and XRPD was applied to test the crystalline form.
Samples of Form C were stored at 25° C./60% RH (open) for 1 month, and XRPD was applied to test the crystalline form.

The nature of data set [3]: Solubility in SGF, FeSSIF and FaSSIF by HPLC. On the procedure: High Performance Liquid Chromatography (HPLC) data in the present disclosure are collected from Agilent 1260 with diode array detector (DAD).
The HPLC method parameters for solubility in the present disclosure are as follows:
1. Column: Agilent Infinity Lab Poroshell 120 EC-C18 150*3.0 mm, 2.7 μm
2. Mobile Phase: A: 25 mmol/L KH2PO4 aqueous solution
3. Flow rate: 0.7 mL/min 4. Injection Volume: 5 μL 5. Detection wavelength: 220 nm 6. Column Temperature: 40° C. 7. Diluent: Acetonitrile/H2O (v/v, 1/1)
Samples of Form B in the present disclosure and crystalline form I disclosed in WO2016120530A1 were suspended into SGF (simulated gastric fluids, pH=1.8), FeSSIF (Fed state simulated intestinal fluids, pH=5.0) and FaSSIF (Fasted state simulated intestinal fluids, pH=6.5) to get saturated solutions. After equilibrated for 1 hour and 4 hours, concentrations of the saturated solutions were measured by HPLC.
Samples of Form C in the present disclosure and crystalline form I disclosed in WO2016120530A1 were suspended into FeSSIF (Fed state simulated intestinal fluids, pH=5.0) and FaSSIF (Fasted state simulated intestinal fluids, pH=6.5) to get saturated solutions. After equilibrated for 1 hour and 4 hours, concentrations of the saturated solutions were measured by HPLC.

A short description of data set [4]: Particle size distribution (laser particle size analyzer). The note with it: for D10 / D50 / D90 / MV (average particle size by volume): wet process, Isopar G. On the procedure: The particle size distribution test in the present disclosure is acquired by the S3500 laser particle size analyzer of Microtrac. Microtrac S3500 is equipped with the SDC (Sample Delivery Controller). The test is carried out by wet process, and the dispersion medium is Isopar G. The parameters are as follows:
The particle size distribution of Form B in the present disclosure and Form I disclosed in WO2016120530A1 were tested.

The nature of data set [5]: Grinding stability (XRPD before and after grinding). As to conditions: manually ground in a mortar for 5 minutes. The protocol:
About 20 mg of Form C in the present disclosure and crystalline form I disclosed in WO2016120530A1 were manually ground in a mortar for 5 minutes. XRPD tests of the samples before and after grinding were carried out. The XRPD patterns of Form C were shown in FIG. 20 (top: XRPD pattern after grinding, bottom: XRPD pattern before grinding), and the XRPD patterns of crystalline form I were shown in FIG. 21 (top: XRPD pattern after grinding, bottom: XRPD pattern before grinding).

As to `CC(O)c1cc(C(=O)N[C@@H](C)Cn2ccc(-c3ccc(C#N)c(Cl)c3)n2)n[nH]1` (single isomer, unassigned) [Form B], in data set [1], the Hygroscopicity entry is listed as “slightly hygroscopic”, the “Weight gain under 80% RH” value came out at 0.93% and the “Solid Form after DVS” value is listed as “remain unchanged; also recorded: Form B”. Moreover, the “Time the form keeps stable” value in data set [2] (25° C./60% RH) was “at least 3 months”. Besides, the “Change of Solid Form” value in data set [2] (25° C./60% RH (open)) is “physically stable”. Moreover, the “Time the form keeps stable” value in data set [2] (40° C./75% RH) is listed as “at least 3 months”. In addition, the “Change of Solid Form” value in data set [2] (40° C./75% RH (open)) is “physically stable”. Moreover, the Solubility in data set [3] (FaSSIF pH=6.5, 1 hour) turned out to be 3.0 µg/mL (≈ 7.52 µM). For the same compound, the Solubility in data set [3] (FaSSIF pH=6.5, 4 hours) was found to be 0.5 µg/mL (≈ 1.25 µM). For the same compound, in data set [3] (FeSSIF pH=5.0, 1 hour), the Solubility came to 408.1 µg/mL (≈ 1020 µM). Further, the Solubility in data set [3] (SGF pH=1.8, 1 hour) was determined as 62.7 µg/mL (≈ 157 µM). In data set [3] (SGF pH=1.8, 4 hours), this compound showed a Solubility of 33.5 µg/mL (≈ 84 µM). In addition, the solubility at 4 h in data set [3] (fed state simulated intestinal fluid (FeSSIF), pH 5, fessif, thermodynamic from solid, FeSSIF pH=5.0, 4 hours) is 288 µg/mL (≈ 722 µM). In data set [4], the “Particle size distribution pattern” value is “unimodal and normal distribution”; the D10 amounted to 1.20 μm; the D50 is reported as 2.73 μm; the D90 is 5.49 μm. The “MV (average particle size by volume)” value in data set [4] worked out at 3.12 μm.

Regarding `CC(O)c1cc(C(=O)N[C@@H](C)Cn2ccc(-c3ccc(C#N)c(Cl)c3)n2)n[nH]1` (single isomer, unassigned) [Form C], the Hygroscopicity entry in data set [1] is recorded as “slightly hygroscopic”. Moreover, the “Weight gain under 80% RH” value in data set [1] worked out at 1.60%. Besides, in data set [1], the “Solid Form after DVS” value is reported as “remain unchanged; also recorded: Form C”. Also, the “Time the form keeps stable” value in data set [2] (25° C./60% RH) is recorded as “at least 1 month”. In addition, the Solubility in data set [3] (FaSSIF pH=6.5, 1 hour) was 39.0 µg/mL (≈ 97.8 µM); in data set [3] (FaSSIF pH=6.5, 4 hours), 35.5 µg/mL (≈ 89 µM); in data set [3] (FeSSIF pH=5.0, 1 hour), 469.6 µg/mL (≈ 1180 µM); in data set [3] (FeSSIF pH=5.0, 4 hours) it was 163.1 µg/mL (≈ 409 µM). Moreover, the Crystallinity after grinding entry in data set [5] is “remains good crystallinity after grinding”.

On to `CC(O)c1cc(C(=O)N[C@@H](C)Cn2ccc(-c3ccc(C#N)c(Cl)c3)n2)n[nH]1` (some centres unmarked) [Crystalline form I, reference compound], for which, in data set [1], the Hygroscopicity entry was “hygroscopic” and the “Weight gain under 80% RH” value was more than 2.37%. Further, the Solubility in data set [3] (FaSSIF pH=6.5, 1 hour) turned out to be 1.0 µg/mL (≈ 2.51 µM). The same compound yielded a Solubility in data set [3] (FaSSIF pH=6.5, 4 hours) of 0.1 µg/mL (≈ 0.251 µM). In data set [3] (FeSSIF pH=5.0, 1 hour), the Solubility came out at 183.1 µg/mL (≈ 459 µM). Besides, the Solubility in data set [3] (FeSSIF pH=5.0, 4 hours) stood at 206.3 µg/mL (≈ 517 µM). The compound also registered a Solubility in data set [3] (SGF pH=1.8, 1 hour) of 14.0 µg/mL (≈ 35.1 µM). Also, in data set [3] (SGF pH=1.8, 4 hours), the Solubility came to 9.9 µg/mL (≈ 24.8 µM). Moreover, in data set [4], the “Particle size distribution pattern” value is recorded as “bimodal distribution”, the D10 is given as 24.97 μm, the D50 was determined as 100.5 μm and the D90 was found to be 297.4 μm. The “MV (average particle size by volume)” value in data set [4] was 136.1 μm. For the same compound, in data set [5], the Crystallinity after grinding result is given as “decreased significantly”.

One may read the Solubility as how much of the substance goes into solution per volume. As a reminder, the solubility is how much of the substance goes into solution per volume. A lower solubility goes with little dissolved substance.
